Laboratory results published in ChEMBL document CHEMBL5523671, “ω-(5-Phenyl-2H-tetrazol-2-yl)alkyl-substituted glycine amides and related compounds as inhibitors of the amine oxidase vascular adhesion protein-1 (VAP-1)” (Bioorg Med Chem, 2024).
The source made the active and inactive calls. The rule behind the calls is not given here.

Columns and labels:
[1] = target: T1, Amine oxidase [copper-containing] 3 (Bos taurus, UniProt Q9TTK6); assay: Inhibition of bovine plasma VAP-1 using 6-(5-Pheny1-2H-tetrazol-2-yl)hexan-1-amine as substrate measured after 30 mins by UV-HPLC analysis; format: cell-free
T1 sequence (Q9TTK6 whole entry): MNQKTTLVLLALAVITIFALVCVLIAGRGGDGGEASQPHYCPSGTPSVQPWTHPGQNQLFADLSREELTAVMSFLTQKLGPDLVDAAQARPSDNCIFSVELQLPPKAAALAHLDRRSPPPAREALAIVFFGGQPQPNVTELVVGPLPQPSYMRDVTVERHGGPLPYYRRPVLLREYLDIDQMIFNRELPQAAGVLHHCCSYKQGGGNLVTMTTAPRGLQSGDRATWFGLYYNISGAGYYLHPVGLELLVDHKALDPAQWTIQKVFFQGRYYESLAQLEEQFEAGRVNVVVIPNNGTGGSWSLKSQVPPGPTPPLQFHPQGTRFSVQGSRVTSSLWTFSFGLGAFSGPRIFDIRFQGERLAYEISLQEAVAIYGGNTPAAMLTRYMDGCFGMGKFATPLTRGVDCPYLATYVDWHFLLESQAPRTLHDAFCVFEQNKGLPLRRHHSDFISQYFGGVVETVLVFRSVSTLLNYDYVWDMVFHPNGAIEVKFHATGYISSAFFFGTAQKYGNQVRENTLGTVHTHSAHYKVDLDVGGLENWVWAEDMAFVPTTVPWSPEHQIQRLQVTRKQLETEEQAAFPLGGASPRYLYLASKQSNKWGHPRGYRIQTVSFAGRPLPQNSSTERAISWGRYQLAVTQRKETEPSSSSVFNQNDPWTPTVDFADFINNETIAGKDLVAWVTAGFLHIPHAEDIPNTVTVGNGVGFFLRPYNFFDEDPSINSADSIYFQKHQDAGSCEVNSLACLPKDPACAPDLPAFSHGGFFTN

[2] = target: T1, Amine oxidase [copper-containing] 3; assay: Inhibition of bovine plasma VAP-1 using 6-(5-Pheny1-2H-tetrazol-2-yl)hexan-1-amine as substrate preincubated with enzyme for 15 mins followed by substrate addition measured after 30 mins by UV-HPLC analysis; format: cell-free
[3] = target: T2, Amine oxidase [copper-containing] 3 (Bos taurus) (UniProt Q9TTK6); assay: Inhibition of bovine plasma VAP-1 using 6-(5-Pheny1-2H-tetrazol-2-yl)hexan-1-amine as substrate at 10 uM measured after 30 mins by UV-HPLC analysis relative to control; format: cell-free
T2 sequence (whole entry): T1 sequence (Q9TTK6 whole entry)

[4] = target: T2, Amine oxidase [copper-containing] 3 (Bos taurus); assay: Inhibition of bovine plasma VAP-1 using 6-(5-Pheny1-2H-tetrazol-2-yl)hexan-1-amine as substrate at 10 uM preincubated with enzyme for 15 mins followed by substrate addition measured after 30 mins by UV-HPLC analysis relative to control; format: cell-free; conditions: time 45.0 min
[5] = target: T3, VAP-1 (amine oxidase [copper-containing] 3) (Bos taurus, UniProt Q9TTK6); assay: Stability of compound assessed as bovine plasma VAP-1 mediated drug degradation by measuring parent compound remaining at 10 uM incubated for 15 mins by HPLC-MS analysis; format: ADME, cell-free; conditions: cattle, bovine plasma VAP-1 (amine oxidase [copper-containing] 3), read-out: Stability
T3 sequence (Q9TTK6 whole entry): T1 sequence (Q9TTK6 whole entry)

[6] = target: T4, Amine oxidase [copper-containing] 3 (Homo sapiens, UniProt Q16853); assay: Inhibition of human plasma VAP-1 using 6-(5-Pheny1-2H-tetrazol-2-yl)hexan-1-amine as substrate preincubated with enzyme for 15 mins followed by substrate addition measured after 120 mins by UV-HPLC analysis; format: cell-free
T4 sequence (Q16853 whole entry): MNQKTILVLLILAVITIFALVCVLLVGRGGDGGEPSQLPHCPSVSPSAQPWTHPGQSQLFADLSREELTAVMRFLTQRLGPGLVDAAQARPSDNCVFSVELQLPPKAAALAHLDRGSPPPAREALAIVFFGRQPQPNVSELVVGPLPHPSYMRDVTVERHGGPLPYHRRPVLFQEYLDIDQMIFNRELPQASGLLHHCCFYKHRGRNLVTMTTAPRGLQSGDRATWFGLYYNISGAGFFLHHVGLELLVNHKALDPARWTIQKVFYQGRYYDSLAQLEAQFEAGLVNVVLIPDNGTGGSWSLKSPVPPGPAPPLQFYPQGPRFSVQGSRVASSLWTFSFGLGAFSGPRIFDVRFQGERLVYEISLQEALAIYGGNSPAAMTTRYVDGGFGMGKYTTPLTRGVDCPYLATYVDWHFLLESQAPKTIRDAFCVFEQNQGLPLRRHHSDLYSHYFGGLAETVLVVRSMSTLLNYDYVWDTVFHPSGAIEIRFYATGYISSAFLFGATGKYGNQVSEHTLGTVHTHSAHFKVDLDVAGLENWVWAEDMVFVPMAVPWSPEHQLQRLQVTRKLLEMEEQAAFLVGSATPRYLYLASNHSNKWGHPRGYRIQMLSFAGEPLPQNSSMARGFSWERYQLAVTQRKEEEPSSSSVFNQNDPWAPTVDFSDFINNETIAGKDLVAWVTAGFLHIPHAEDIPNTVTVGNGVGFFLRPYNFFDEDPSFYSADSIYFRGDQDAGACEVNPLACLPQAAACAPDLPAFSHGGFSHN

[7] = Selectivity index, ratio of IC50 for human plasma VAP-1 to IC50 for bovine plasma VAP-1
[8] = target: T3, VAP-1 (amine oxidase [copper-containing] 3); assay: Stability of compound assessed as bovine plasma VAP-1 mediated drug degradation by measuring parent compound remaining at 10 uM incubated for 120 mins by HPLC-MS analysis; format: ADME, cell-free; conditions: cattle, bovine plasma VAP-1 (amine oxidase [copper-containing] 3), read-out: Stability
[9] = target: T1, Amine oxidase [copper-containing] 3; assay: Stability of compound assessed as bovine plasma VAP-1 mediated drug degradation by measuring formation of aldehyde metabolite at 1 to 10 uM incubated for 60 to 120 mins by HPLC-MS analysis; format: ADME, cell-free; conditions: cattle, dose lower 1 µM, time lower 60 min, dose upper 10 µM, time upper 120 min
[10] = target: T3, VAP-1 (amine oxidase [copper-containing] 3); assay: Stability of compound assessed as bovine plasma VAP-1 mediated drug degradation by measuring parent compound remaining at 10 uM incubated for 60 mins by HPLC-MS analysis; format: ADME, cell-free; conditions: cattle, bovine plasma VAP-1 (amine oxidase [copper-containing] 3), read-out: Stability
[11] = target: T3, VAP-1 (amine oxidase [copper-containing] 3); assay: Stability of compound assessed as bovine plasma VAP-1 mediated drug degradation by measuring parent compound remaining at 10 uM incubated for 30 mins by HPLC-MS analysis; format: ADME, cell-free; conditions: cattle, bovine plasma VAP-1 (amine oxidase [copper-containing] 3), read-out: Stability
[12] = target: T3, VAP-1 (amine oxidase [copper-containing] 3); assay: Stability of compound assessed as bovine plasma VAP-1 mediated drug degradation by measuring parent compound remaining at 1 uM incubated for 30 mins by HPLC-MS analysis; format: ADME, cell-free; conditions: cattle, bovine plasma VAP-1 (amine oxidase [copper-containing] 3), read-out: Stability
[13] = Selectivity index, ratio of IC50 for porcine kidney DAO to IC50 for bovine plasma VAP-1
[14] = target: T3, VAP-1 (amine oxidase [copper-containing] 3); assay: Stability of compound assessed as bovine plasma VAP-1 mediated drug degradation by measuring parent compound remaining at 1 uM incubated for 60 mins by HPLC-MS analysis; format: ADME, cell-free; conditions: cattle, bovine plasma VAP-1 (amine oxidase [copper-containing] 3), read-out: Stability
[15] = target: T3, VAP-1 (amine oxidase [copper-containing] 3); assay: Stability of compound assessed as bovine plasma VAP-1 mediated drug degradation by measuring parent compound remaining at 1 uM incubated for 15 mins by HPLC-MS analysis; format: ADME, cell-free; conditions: cattle, bovine plasma VAP-1 (amine oxidase [copper-containing] 3), read-out: Stability
[16] = target: T3, VAP-1 (amine oxidase [copper-containing] 3); assay: Stability of compound assessed as bovine plasma VAP-1 mediated drug degradation by measuring parent compound remaining at 1 uM incubated for 120 mins by HPLC-MS analysis; format: ADME, cell-free; conditions: cattle, bovine plasma VAP-1 (amine oxidase [copper-containing] 3), read-out: Stability

SMILES	IC50 [1] [µM]	IC50 [2] [µM]	inhibition [3]	inhibition [4]	other results
NCC(=O)NCCCCCCn1nnc(-c2ccc(N3CCOCC3)cc2)n1	7.6	5.6	–	–	–
NCC(=O)NCCCCCCn1ccc(-c2ccccc2)n1	> 10	> 10	42%	37%	–
NCC(=O)NCCCCCCn1nnc(-c2ccsc2)n1	6.3	6.8	–	–	–
NCC(=O)NCCCCCCn1nnc(-c2cccs2)n1	5.6	7.7	–	–	–
NCC(=O)NCCCCn1nnc(-c2ccccc2)n1	> 10	> 10	14%	29%	–
NCC(=O)NCc1ccc(Cn2nnc(-c3ccccc3)n2)cc1	9.1	5.9	–	–	remaining at 0.25 h, 10 µM [5]: 89%; remaining at 2 h, 10 µM [8]: 45%; remaining at 1 h, 10 µM [10]: 69%; remaining at 0.5 h, 10 µM [11]: 82%
NCC(=O)NCCCCCCn1nnc(-c2ccccn2)n1	> 10	> 10	40%	49%	–

Continued, in another order:

IC50 [1] [µM]	IC50 [2] [µM]	inhibition [3]	inhibition [4]	SMILES	other results
> 10	> 10	20%	18%	NCC(=O)Nc1ccc(CCn2nnc(-c3ccccc3)n2)cc1	–
–	–	inactive	inactive	NCC(=O)NCCCCCCn1nnc(-c2ccc(C(=O)O)cc2)n1	–
2.3	4.5	–	–	CS(=O)(=O)c1ccc(-c2nnn(CCCCCCNC(=O)CN)n2)cc1	remaining at 0.25 h, 10 µM [5]: 82%; IC50 [6]: 29 µM; Ratio IC50 [7]: 2; remaining at 2 h, 10 µM [8]: < 5%; Stability [9]: Unstable; remaining at 1 h, 10 µM [10]: 23%; remaining at 0.5 h, 10 µM [11]: 63%
9.4	> 10	–	45%	NCC(=O)NCCCCCn1nnc(-c2ccccc2)n1	–
> 10	> 10	41%	33%	NCC(=O)NCCCCCCn1cnc(-c2ccccc2)c1	–
> 10	> 10	19%	18%	NCC(=O)N1CCC(CCCn2nnc(-c3ccccc3)n2)CC1	–
0.37	0.16	–	–	Cl.NCC(=O)NCc1cccc(Cn2nnc(-c3ccccc3)n2)c1	remaining at 0.5 h, 1 µM [12]: 47%; remaining at 0.25 h, 10 µM [5]: > 95%; Ratio IC50 [13]: 50; remaining at 1 h, 1 µM [14]: < 5%; IC50 [6]: 2.1 µM; Ratio IC50 [7]: 2; remaining at 0.25 h, 1 µM [15]: 73%; remaining at 2 h, 10 µM [8]: 84%; Stability [9]: Stable; remaining at 1 h, 10 µM [10]: 93%; remaining at 2 h, 1 µM [16]: < 5%; remaining at 0.5 h, 10 µM [11]: > 95%
1	0.027	–	–	CC(C)(C)NC(=O)c1ccc(OC/C(=C/F)CN)cc1	remaining at 0.5 h, 1 µM [12]: > 95%; remaining at 0.25 h, 10 µM [5]: > 95%; remaining at 1 h, 1 µM [14]: > 95%; remaining at 0.25 h, 1 µM [15]: > 95%; remaining at 2 h, 10 µM [8]: > 95%; remaining at 1 h, 10 µM [10]: > 95%; remaining at 2 h, 1 µM [16]: 90%; remaining at 0.5 h, 10 µM [11]: > 95%
4	5.2	–	–	NCC(=O)NCCCCCCn1nnc(-c2ccc(C(N)=O)cc2)n1	–
